Measurements: publication PMC2939729 (Cancer cell, 2010)

Experiments:
[1] = Pharmacokinetics in Sprague-Dawley rats; type: in vivo; conditions: single oral dose of 2 mg/kg
cancer cell lines = assay: Proliferation of a wide variety of cancer cell lines; type: cell-based
TNK1 = molecular target: T1, TNK1 (Homo sapiens, UniProt Q13470); assay: in vitro ATP-site competition binding assay, panel of 402 kinases; conditions: 10 μM inhibitor
T1 sequence (Q13470 1-666): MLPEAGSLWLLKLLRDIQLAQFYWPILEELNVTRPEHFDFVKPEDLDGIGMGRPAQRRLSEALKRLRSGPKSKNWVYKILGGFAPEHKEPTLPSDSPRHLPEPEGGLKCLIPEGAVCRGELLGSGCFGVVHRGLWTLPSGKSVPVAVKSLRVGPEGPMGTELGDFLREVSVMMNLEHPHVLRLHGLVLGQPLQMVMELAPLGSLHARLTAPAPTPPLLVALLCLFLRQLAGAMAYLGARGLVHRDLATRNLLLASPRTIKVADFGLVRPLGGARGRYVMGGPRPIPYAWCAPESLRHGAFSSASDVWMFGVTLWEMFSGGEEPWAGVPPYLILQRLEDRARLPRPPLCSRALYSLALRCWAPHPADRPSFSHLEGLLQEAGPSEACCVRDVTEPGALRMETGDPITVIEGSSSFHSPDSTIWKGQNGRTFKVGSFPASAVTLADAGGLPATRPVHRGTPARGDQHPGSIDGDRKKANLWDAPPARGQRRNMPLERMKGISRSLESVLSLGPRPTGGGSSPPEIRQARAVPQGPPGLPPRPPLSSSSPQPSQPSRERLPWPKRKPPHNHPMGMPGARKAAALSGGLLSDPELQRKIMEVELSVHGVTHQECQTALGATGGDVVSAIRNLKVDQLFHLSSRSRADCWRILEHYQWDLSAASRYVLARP

DCAMKL2 = molecular target: T2, DCAMKL2 (Homo sapiens, UniProt Q8N568); assay: as above; conditions: 10 μM inhibitor
T2 sequence (Q8N568 1-766): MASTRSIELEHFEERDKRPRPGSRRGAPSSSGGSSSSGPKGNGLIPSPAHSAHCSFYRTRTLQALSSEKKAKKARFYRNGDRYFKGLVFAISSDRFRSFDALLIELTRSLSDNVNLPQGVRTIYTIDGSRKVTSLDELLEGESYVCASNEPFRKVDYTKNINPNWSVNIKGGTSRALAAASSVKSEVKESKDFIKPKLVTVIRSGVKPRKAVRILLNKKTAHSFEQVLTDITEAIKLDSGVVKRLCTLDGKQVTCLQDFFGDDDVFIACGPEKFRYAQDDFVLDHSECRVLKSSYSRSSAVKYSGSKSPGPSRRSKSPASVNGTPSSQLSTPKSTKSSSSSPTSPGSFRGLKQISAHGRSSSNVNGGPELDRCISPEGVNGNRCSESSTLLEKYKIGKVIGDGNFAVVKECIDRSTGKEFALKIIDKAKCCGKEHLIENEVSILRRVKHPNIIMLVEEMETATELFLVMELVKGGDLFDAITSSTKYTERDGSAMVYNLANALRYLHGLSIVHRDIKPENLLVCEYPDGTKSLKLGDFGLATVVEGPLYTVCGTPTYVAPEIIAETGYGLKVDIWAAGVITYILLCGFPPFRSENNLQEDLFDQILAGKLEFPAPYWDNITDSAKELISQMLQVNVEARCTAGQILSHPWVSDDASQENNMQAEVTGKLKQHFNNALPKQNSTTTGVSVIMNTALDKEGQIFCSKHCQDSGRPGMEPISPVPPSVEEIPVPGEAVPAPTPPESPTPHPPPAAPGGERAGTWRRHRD

BMK1 [2] = molecular target: T3, BMK1 (Homo sapiens, UniProt Q13164); assay: in vitro kinase assay of BMK1 immunoprecipitated from HEK293 cells; type: biochemical; conditions: BMK1 immunoprecipitated from HEK293 co-transfected with MEK5D and BMK1
Target sequence in this assay (Q13164 whole entry, species assumed): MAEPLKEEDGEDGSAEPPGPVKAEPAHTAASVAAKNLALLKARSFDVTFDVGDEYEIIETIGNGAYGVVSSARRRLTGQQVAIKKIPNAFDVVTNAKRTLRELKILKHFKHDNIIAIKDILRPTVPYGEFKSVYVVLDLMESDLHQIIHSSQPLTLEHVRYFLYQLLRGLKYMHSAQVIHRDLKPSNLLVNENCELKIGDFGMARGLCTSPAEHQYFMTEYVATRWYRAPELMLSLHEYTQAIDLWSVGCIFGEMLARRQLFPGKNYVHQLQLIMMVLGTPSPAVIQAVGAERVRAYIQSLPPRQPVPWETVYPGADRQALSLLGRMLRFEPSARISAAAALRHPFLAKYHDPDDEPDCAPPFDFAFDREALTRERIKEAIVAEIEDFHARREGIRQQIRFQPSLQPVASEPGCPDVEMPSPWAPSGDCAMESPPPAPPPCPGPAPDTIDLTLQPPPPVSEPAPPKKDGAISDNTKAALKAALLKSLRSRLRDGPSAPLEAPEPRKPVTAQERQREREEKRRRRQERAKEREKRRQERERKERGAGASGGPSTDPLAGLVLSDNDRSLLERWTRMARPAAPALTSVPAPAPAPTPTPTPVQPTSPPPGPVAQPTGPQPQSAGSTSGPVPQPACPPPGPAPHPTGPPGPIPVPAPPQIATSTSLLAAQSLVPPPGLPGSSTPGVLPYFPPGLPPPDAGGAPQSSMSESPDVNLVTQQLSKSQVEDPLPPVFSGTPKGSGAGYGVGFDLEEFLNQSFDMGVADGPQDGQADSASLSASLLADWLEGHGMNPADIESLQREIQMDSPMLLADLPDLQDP

BMK1 [3] = molecular target: T3, BMK1; assay: A549 xenograft: BMK1 activation and p21 in tumor homogenates; type: in vivo; conditions: Nod/Scid mice, 50 mg/kg twice a day, 2 days
Target sequence in this assay (Q13164 whole entry): as the sequence (Q13164 whole entry, species assumed) above

PLK4 [4] = molecular target: T4, PLK4 (Homo sapiens, UniProt O00444); assay: in vitro ATP-site competition binding assay, panel of 402 kinases; conditions: 10 μM inhibitor
T4 sequence (O00444 1-970): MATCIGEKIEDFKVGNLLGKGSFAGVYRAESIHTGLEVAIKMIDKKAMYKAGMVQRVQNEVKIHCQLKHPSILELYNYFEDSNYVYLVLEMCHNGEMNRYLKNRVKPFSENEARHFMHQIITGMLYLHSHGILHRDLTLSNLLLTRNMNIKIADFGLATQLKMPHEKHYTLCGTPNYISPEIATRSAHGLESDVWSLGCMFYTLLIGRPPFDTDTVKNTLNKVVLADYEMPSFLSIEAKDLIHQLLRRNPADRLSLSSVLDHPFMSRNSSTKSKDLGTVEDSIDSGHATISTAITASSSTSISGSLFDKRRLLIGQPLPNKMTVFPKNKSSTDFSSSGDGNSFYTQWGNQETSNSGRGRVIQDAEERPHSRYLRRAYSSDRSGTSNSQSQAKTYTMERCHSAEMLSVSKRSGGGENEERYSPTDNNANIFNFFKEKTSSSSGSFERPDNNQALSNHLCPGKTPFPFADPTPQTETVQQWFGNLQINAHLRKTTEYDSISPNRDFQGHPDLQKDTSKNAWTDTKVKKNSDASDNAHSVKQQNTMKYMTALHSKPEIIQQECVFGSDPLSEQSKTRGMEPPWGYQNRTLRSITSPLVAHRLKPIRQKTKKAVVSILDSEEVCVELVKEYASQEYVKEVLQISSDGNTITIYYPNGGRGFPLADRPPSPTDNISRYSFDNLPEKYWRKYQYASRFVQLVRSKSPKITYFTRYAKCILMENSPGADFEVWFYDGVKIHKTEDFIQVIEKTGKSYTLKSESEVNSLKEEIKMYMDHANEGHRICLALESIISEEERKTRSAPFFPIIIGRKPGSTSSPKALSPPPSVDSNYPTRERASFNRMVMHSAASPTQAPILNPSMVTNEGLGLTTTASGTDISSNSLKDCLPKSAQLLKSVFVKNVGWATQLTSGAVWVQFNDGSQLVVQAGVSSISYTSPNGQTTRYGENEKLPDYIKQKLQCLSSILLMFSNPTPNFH

HeLa cells = assay: HeLa cell proliferation, MTT assay; type: cell-based, human; conditions: 5 μM, 48 hr, compared with Ad-BMK1(AEF)
PLK4 [5] = molecular target: T4, PLK4; assay: Inhibitory effect on PLK4 in vitro and in vivo

## CCOc1cc(N2CCC(O)CC2)ccc1Nc1ncc2c(n1)N(C)c1ccccc1C(=O)N2C [XMD8-92]
[1]
  maximal plasma concentrations: approximately 500 nM
  time of maximal plasma concentrations: ≤ 30 min
[1]; 8 hr
  plasma concentration remaining 8 hr post dose: 34 nM
Cancer cell lines
  effect on proliferation: inhibitory effect
TNK1
  displacement by XMD8-92: greater than 90%
DCAMKL2
  displacement by XMD8-92: greater than 90%
BMK1 [2]
  BMK1 activity in in vitro kinase assays: significantly reduced
BMK1 [3]
  BMK1 activation in tumors: effectively inhibit
  p21 expression in tumors: induce
PLK4 [4]
  displacement by XMD8-92: greater than 90%
HeLa cells
  extent of inhibition of proliferation: indistinguishable from that by dominant negative BMK1
PLK4 [5]
  inhibitory effect on PLK4: no significant inhibitory effect
